Laboratory results taken from patent US8663701B2, “Compositions containing ultra-micronized palmitoyl-ethanolamide” (priority 2009, dated 2014).

Experiments:
[1] = Concentration of PEA in serum after single oral administration; assay type: in vivo, Beagle dogs; settings: 15 mg/Kg oral, fasting
[2] = tested on: 2-arachidonoylglycerol (2-AG); assay: Concentration of 2-AG in serum after single oral administration of PEA; assay type: in vivo, Beagle dogs; settings: for Concentration in serum, 2AG: 15 mg/Kg oral, fasting; for Increase of 2-AG in blood compared to the basal levels: administration per os
Source text: Dose measurements in blood have been carried out of 2-arachidonoyl-glycerol (2-AG), an endocannabinoid of great importance in the modulation of the activation of cells capable of expressing the cannabinoid CB2 receptor; this is the case of many cells belonging to the immune system as the microglia.

[3] = tested on: TNF-alpha, NGF, NF-kB, IL-1 alpha; assay: Sciatic nerve ligation (CCI), spinal parameters at day 10; assay type: in vivo, mouse; settings: for IL-1alpha / NGF / TNF-alpha: spinal area, day 10 after ligation (CCI), per os once per day
Source text: After sciatic nerve ligation—CCI (carried out as described by Costa et al., Pain 2008; 139:541-550), a series of altered spinal parameters have been assessed in the mouse, following peripheral damage, and related to the activation of microglial cells induced by the peripheral chronic distress. In particular, TNF-alpha, NGF, NF-kB according to the method described by Costa et al. (see supra), and IL-1 alpha according to the method described by Fiorentino et al., 2008; 58(10):3100-3109 have been measured.
A 0.5% solution in carboxymethyl cellulose has been used as a vehicle.
The measurements of the parameters indicated, above have been carried out at day 10 from the sciatic nerve ligation, after sacrifice of the test animal and sampling of the spinal area.

[4] = tested on: cutaneous reaction induced by Ascaris suum; assay: Cutaneous reaction induced by Asc S1 antigen in dogs sensitized to Ascaris suum; assay type: in vivo, Beagle dog; settings: for Inhibition on the cutaneous reaction induced by Ascaris suum: 10 mg/Kg oral; for Inhibition of the cutaneous reaction: between 1 and 4 hours after treatment
Procedure: Beagle dog spontaneously sensitized to Ascaris suum were used.
A 2% solution of Evans Blue in saline was administered endovenously (0.4 mL/Kg) 30 minutes before the intradermal injection of Asc S1 antigen, so as to be able to visualize the dermal reaction area.
The dermal reaction area was measured 10 minutes after the injection of Asc S1 antigen.

[5] = tested on: protein NGF, protein TNF-alpha; assay: Carrageenan-induced granuloma; assay type: in vivo, rat; settings: for Expression of protein NGF in the dorsal root ganglia / Expression of protein NGF in the granulomatous tissue / Expression of protein TNF-alpha in the dorsal root ganglia: 96 hours, 10 mg/Kg oral every 12 hours for 3 days
Procedure: The pharmacological model of granuloma induced, in the rat, by the introduction in the subcutaneous tissue of carrageenan-soaked sponge has been used. The model is described in De Filippis et al., J Cell Mol Med. 2009; 13(6):1086-1095.
The administrations were carried out at time 0 (immediately before the introduction of the sponges), and every 12 hours for 3 consecutive days. The unit doses administered were 10 mg/Kg.
The biochemical parameters relative to pro-algogenic mediators were detected, after sacrifice of the animal occurred after 96 hours from the introduction of the sponges, both in the granulomatous tissue (expression of the protein NGF), and at the level of the dorsal root ganglia (RDG) (expression of the protein TNF-alpha and the protein NGF).

[6] = tested on: TNF-alpha, tissue mast cells; assay: LPS-induced acute intestinal inflammation; assay type: in vivo, mouse; settings: 18 hours after LPS
Procedure: (§1) An acute inflammation was induced in the animal by means of intra-peritoneal injection of LPS (lipopolysaccharide): the animals were sacrificed after 18 hours from the LPS administration. Instead, a chronic inflammation at the colon level was induced by administering the animal with DNBS (2,4-Dinitrobenzene sulfonic acid): in this case, the animals were sacrificed after 96 hours from the DNBS administration.
(§2) The level of TNF-alpha and the percent variation in the number of mast cells were assessed on intestinal tissue.

[7] = tested on: TNF-alpha, tissue mast cells; assay: DNBS-induced chronic intestinal inflammation; assay type: in vivo, mouse; settings: 96 hours after DNBS
Procedure: as §1, §2

[8] = tested on: IL-1 beta, NO2; assay: Beta-amyloid-induced neuroinflammation; assay type: in vivo, C57BL/6 mice; settings: for Effect on the levels of the biological parameters considered: IL-1 beta and NO2 in hippocampus; for Hippocampal levels of NO2 / Hippocampal tissue levels of IL-1 beta (with immunofluorescence method) (count of cells immunopositive to THE-1 beta): per os daily for 8 days after beta-amyloid inoculation
Procedure: C57BL/6 mice with age ranging between 3 and 5 months have been used, divided in 3 different groups (20 animals per group). […] The administrations were carried out daily for 8 days successive to the inoculation of the beta-amyloid. The third group was administered with the vehicle alone. After sacrifice of the animal, IL-1 beta and NO2 dose level was measured in the hippocampal homogenate via an immunofluorescence method.
The experimental method described by Esposito et al., Br J Pharmacol. 2007; 151:1272-1279 has been used.

[9] = tested on: neuropathic pain at the lower limbs; assay: Neuropathic pain in Multiple Sclerosis patients, VAS scale; assay type: in vivo; settings: for VAS after the treatment of 60 days (average value): tablets
Procedure: The pain intensity was measured with a VAS (Visual Analogue Scale) scale both before and at the end of the treatment with palmitoylethanolamide.

[10] = Particle size profile, laser particle size analyzer (LALLS); assay type: physicochemical; settings: ultra-micronization
Source text: In order to measure the particle size, a laser particle size analyzer (Malvern Mastersizer) with LALLS (Low Angle Laser Light Scattering) technique using the Fraunhofer theory of computation is employed.

[11] = Modulated Differential Scanning Calorimetry (MDSC); assay type: physicochemical; settings: room temperature; from MDSC spectrum
Source text: The MDSC technique is a known one, the principles and applications of which are described, for example, in S. R. Rabel et al., Journal of Pharmaceutical and Biomedical Analysis, 21 (1999) 339-345. The tests described in the present patent application have been carried out with an equipment TA DSC Q200.
Such differential calorimetry measurement performed with the MDSC technique have shown an outstanding difference between the initial product and the ultra-micronized product, which difference consists in the appearance, in the product subjected to ultra-micronization, of a positive peak of exothermal transition at a temperature between 101° C. and 103° C., which is distinctive of structures with a high energy content; in the original product, such peak results, on the contrary, to be negative (see FIGS. 3 and 4). The positive exothermal transition peak has to be interpreted as the signal of the heat developed by the transformation of the higher energy content form (formed during the ultra-micronization process) into the native crystalline form with lower energy content.
The net energy transition which characterizes the positive peak at 101-103° C. of FIG. 4 is symptomatic of such stability. Differently, progressive transitions at lower temperatures should have to be noticed.

[12] = Time 0 (immediately before administration)
[13] = Time 0 hours (before administration)
[14] = listed as micronized PEA, 10 mg/kg
[15] = vehicle 100, listed as Micronized PEA
[16] = listed as ultra-micronized PEA, 10 mg/kg
[17] = vehicle 100, listed as Ultra-micronized PEA

CCCCCCCCCCCCCCCC(=O)NCCO [Micronized palmitoylethanolamide, palmitoylethanolamide, reference compound]
concentration at 0 h ([1]; Beagle, dog, serum, po, 15 mg/kg, Time 0 (immediately before administration)): 12.4 nM
concentration at 1 h ([1]; Beagle, dog, serum, po, 15 mg/kg, Time 1 h): 22.2 nM
concentration at 2 h ([1]; Beagle, dog, serum, po, 15 mg/kg, Time 2 h): 15.6 nM
concentration at 3 h ([1]; Beagle, dog, serum, po, 15 mg/kg, Time 3 h): 13.4 nM
Concentration in serum, 2AG [2, 12]: 1.0 pmol/mL
Concentration in serum, 2AG ([2]; Time 1 h, 15 mg/kg): 1.2 pmol/mL
Concentration in serum, 2AG ([2]; Time 2 h, 15 mg/kg): 1.6 pmol/mL
Concentration in serum, 2AG ([2]; Time 3 h, 15 mg/kg): 1.7 pmol/mL
Increase of 2-AG in blood compared to the basal levels [2]: about 70%
IL-1alpha ([3]; listed as micronized PEA): 25.80 ± 2.0 pg/mg prot
NGF ([3]; listed as micronized PEA): 38.6 ± 3.0 pg/mg prot
TNF-alpha ([3]; listed as micronized PEA): 60.4 ± 3.0 pg/mg prot
Inhibition on the cutaneous reaction induced by Ascaris suum [4, 13]: 0%
Inhibition on the cutaneous reaction induced by Ascaris suum ([4]; Time 1 hours, 10 mg/kg): 9.4 ± 2.6%
Inhibition on the cutaneous reaction induced by Ascaris suum ([4]; Time 2 hours, 10 mg/kg): 9.3 ± 4.7%
Inhibition on the cutaneous reaction induced by Ascaris suum ([4]; Time 4 hours, 10 mg/kg): −2.6 ± 4.2%
Inhibition on the cutaneous reaction induced by Ascaris suum ([4]; Time 8 hours, 10 mg/kg): −0.8 ± 2.0%
Inhibition on the cutaneous reaction induced by Ascaris suum ([4]; Time 24 hours, 10 mg/kg): −0.2 ± 2.0%
Inhibition of the cutaneous reaction ([4]; listed as micronized PEA): almost null
Expression of protein NGF in the dorsal root ganglia [5, 14]: 50.8 ± 3.0 OD = mm^2
Expression of protein NGF in the granulomatous tissue [5, 14]: 14.6 ± 2.1 OD = mm^2
Expression of protein TNF-alpha in the dorsal root ganglia [5, 14]: 151.1 ± 9.6 OD = mm^2
Expression of protein TNF-alpha ([6]; listed as Micronized PEA): 128.3 ± 10.8 OD = mm^2
Number of tissue mast cells, percent of vehicle [6, 15]: 86%
Expression of protein TNF-alpha ([7]; listed as Micronized PEA): 134.8 ± 8.4 OD = mm^2
Tissue mast cell number, percent of vehicle [7, 15]: 74%
Effect on the levels of the biological parameters considered ([8]; listed as micronized PEA): only a marginal activity
Hippocampal levels of NO2 ([8]; listed as micronized PEA): 8.2 ± 2.1 μM/μg of proteins from hippocampal homogeneate
Hippocampal tissue levels of IL-1 beta (with immunofluorescence method) (count of cells immunopositive to THE-1 beta) ([8]; listed as micronized PEA): 86.3 ± 7.9
VAS after the treatment of 60 days (average value) ([9]; 600 mg per day for 60 days): 4.22
VAS before the treatment (average value) [9]: 6.52

CCCCCCCCCCCCCCCC(=O)NCCO [Ultra-micronized palmitoylethanolamide, palmitoylethanolamide]
Particle size <0.6 microns [10]: 2.0%
Particle size <1 microns [10]: 14.7%
Particle size <2 microns [10]: 59.6%
Particle size <6 microns [10]: 99.9%
Particle size <10 microns [10]: 100%
Particle size >14 microns [10]: Absent
Stability of the high energy crystalline form [11]: substantially stable at room temperature
Concentration in serum, PEA [1, 12]: 12.4 nM
Concentration in serum, PEA ([1]; Time 1 h, 15 mg/kg): 22.4 nM
Concentration in serum, PEA ([1]; Time 2 h, 15 mg/kg): 16.2 nM
Concentration in serum, PEA ([1]; Time 3 h, 15 mg/kg): 14.1 nM
Concentration in serum, 2AG [2, 12]: 1.0 pmol/mL
Concentration in serum, 2AG ([2]; Time 1 h, 15 mg/kg): 3.6 pmol/mL
Concentration in serum, 2AG ([2]; Time 2 h, 15 mg/kg): 4.2 pmol/mL
Concentration in serum, 2AG ([2]; Time 3 h, 15 mg/kg): 4.7 pmol/mL
Increase of 2-AG in blood compared to the basal levels [2]: higher than 400%
Effect on all the biochemical parameters under investigation ([3]; CCI, day 10): substantial normalization
IL-1alpha ([3]; listed as ultra-micronized PEA): 2.50 ± 0.02 pg/mg prot
NGF ([3]; listed as ultra-micronized PEA): 10.2 ± 2.0 pg/mg prot
TNF-alpha ([3]; listed as ultra-micronized PEA): 44.1 ± 2.8 pg/mg prot
Inhibition on the cutaneous reaction induced by Ascaris suum [4, 13]: 0%
Inhibition on the cutaneous reaction induced by Ascaris suum ([4]; Time 1 hours, 10 mg/kg): 20.8 ± 5.4%
Inhibition on the cutaneous reaction induced by Ascaris suum ([4]; Time 2 hours, 10 mg/kg): 32.4 ± 4.7%
Inhibition on the cutaneous reaction induced by Ascaris suum ([4]; Time 4 hours, 10 mg/kg): 26.0 ± 4.9%
Inhibition on the cutaneous reaction induced by Ascaris suum ([4]; Time 8 hours, 10 mg/kg): 15.1 ± 9.6%
Inhibition on the cutaneous reaction induced by Ascaris suum ([4]; Time 24 hours, 10 mg/kg): 4.5 ± 6.7%
Inhibition of the cutaneous reaction ([4]; listed as ultra-micronized PEA): above 20%
Expression of protein NGF in the dorsal root ganglia [5]: 43.8 ± 3.1 OD = mm^2
Expression of protein NGF in the granulomatous tissue [5, 16]: 6.1 ± 1.6 OD = mm^2
Expression of protein TNF-alpha in the dorsal root ganglia [5, 16]: 96.6 ± 10.4 OD = mm^2
Decrease of NGF levels ([5]; compared to the micronized PEA): much more marked decrease
Expression of protein TNF-alpha ([6]; listed as Ultra-micronized PEA): 75.6 ± 12.3 OD = mm^2
Number of tissue mast cells, percent of vehicle [6, 17]: 41%
Expression of protein TNF-alpha ([7]; listed as Ultra-micronized PEA): 62.9 ± 11.8 OD = mm^2
Tissue mast cell number, percent of vehicle [7, 17]: 26%
Effect on the levels of the biological parameters considered ([8]; listed as ultra-micronized PEA): high decrease
Hippocampal levels of NO2 ([8]; listed as ultra-micronized PEA): 3.1 ± 0.6 μM/μg of proteins from hippocampal homogeneate
Hippocampal tissue levels of IL-1 beta (with immunofluorescence method) (count of cells immunopositive to THE-1 beta) ([8]; listed as ultra-micronized PEA): 21.8 ± 5.4
VAS after the treatment of 60 days (average value) ([9]; 600 mg per day for 60 days): 2.85
Effect on pain (VAS) ([9]; 600 mg per day for 60 days, Wilcoxon p=0.001): marked decrease of the pain
VAS before the treatment (average value) [9]: 6.52
